{"source": "ChEMBL document CHEMBL4152259", "about": "“Benzoxazinone-containing 3,5-dimethylisoxazole derivatives as BET bromodomain inhibitors for treatment of castration-resistant prostate cancer” (Eur J Med Chem, 2018)", "key": {"[1]": {"assay": "Cmax in Sprague-Dawley rat at 2 mg/kg, iv administered as single dose", "type": "ADME, organism-based", "set-up": "dose 2 mg/kg, route intravenous", "conditions": "in vivo"}, "Homo sapiens [2]": {"species": "Homo sapiens", "assay": "Inhibition of BET bromodomain in human 22Rv1 cells assessed as full length AR protein level at 16 uM after 48 hrs by Western blot assay (reference value: 1)", "type": "cell-based"}, "[3]": {"assay": "Tmax in Sprague-Dawley rat at 10 mg/kg, po administered as single dose", "type": "ADME, organism-based", "conditions": "in vivo"}, "Mus musculus": {"test_system": "Mus musculus", "assay": "Toxicity in C.B-17/IcrHsd-Prkdc scid mouse xenografted with human 22Rv1 cells assessed as body weight loss at 50 mg/kg, ip administered 5 times per week measured during compound dosing", "type": "organism-based", "conditions": "in vivo"}, "[4]": {"assay": "AUC (0 to infinity) in Sprague-Dawley rat at 10 mg/kg, po administered as single dose", "type": "ADME, organism-based", "set-up": "dose 10 mg/kg, route oral, time infinity", "conditions": "in vivo"}, "Homo sapiens [5]": {"species": "Homo sapiens", "assay": "Inhibition of BET bromodomain in human 22Rv1 cells assessed as AR-varient protein level at 4 uM after 48 hrs by Western blot assay (reference value: 1)", "type": "cell-based"}, "LNCaP C4-2B": {"test_system": "LNCaP C4-2B", "assay": "Inhibition of colony formation in human C4-2B cells after 14 days by crystal violet staining based assay", "type": "functional, cell-based"}, "[6]": {"assay": "Volume of distribution at steady state in Sprague-Dawley rat at 2 mg/kg, iv administered as single dose", "type": "ADME, organism-based", "conditions": "in vivo, read-out: Vdss"}, "Homo sapiens [7]": {"species": "Homo sapiens", "assay": "Selectivity ratio of IC50 for inhibition of His6-tagged human CREBBP (R1081 to G1197 residues) expressed in Escherichia coli BL21(DE3) by AlphaScreen assay to IC50 for inhibition of His6-tagged human BRD4 bromodomain-1 (N44 to E168 residues) expressed in Escherichia coli BL21(DE3) by AlphaScreen assay"}, "Homo sapiens [8]": {"species": "Homo sapiens", "assay": "Inhibition of BET bromodomain in human 22Rv1 cells assessed as full length AR protein level at 1 uM after 48 hrs by Western blot assay (reference value: 1)", "type": "cell-based"}, "[9]": {"assay": "AUC (0 to infinity) in Sprague-Dawley rat at 2 mg/kg, iv administered as single dose", "type": "ADME, organism-based", "set-up": "dose 2 mg/kg, route intravenous, time infinity", "conditions": "in vivo"}, "[10]": {"assay": "Oral bioavailability in Sprague-Dawley rat at 10 mg/kg administered as single dose", "type": "ADME, organism-based", "conditions": "in vivo"}, "Homo sapiens [11]": {"species": "Homo sapiens", "assay": "Inhibition of BET bromodomain in human 22Rv1 cells assessed as reduction in TMPRSS2 mRNA level at 1 uM after 48 hrs by qPCR assay", "type": "cell-based"}, "Homo sapiens [12]": {"species": "Homo sapiens", "assay": "Inhibition of BET bromodomain in human LNCAP cells assessed as reduction in TMPRSS2 mRNA level at 1 uM after 48 hrs by qPCR assay", "type": "cell-based"}, "Homo sapiens [13]": {"species": "Homo sapiens", "assay": "Inhibition of BET bromodomain in human 22Rv1 cells assessed as AR-varient protein level at 16 uM after 48 hrs by Western blot assay (reference value: 1)", "type": "cell-based"}, "VCaP [14]": {"test_system": "VCaP", "assay": "Inhibition of BET bromodomain in human VCaP cells assessed as reduction in ERG mRNA level at 1 uM after 48 hrs by qPCR assay", "type": "cell-based"}, "CWR22R": {"test_system": "CWR22R", "assay": "Anti-invasive activity against human 22Rv1 cells at 1 uM after 48 hrs by crystal violet staining based matrigel-mediated Boyden chamber assay relative to control", "type": "functional"}, "Homo sapiens [15]": {"species": "Homo sapiens", "assay": "Inhibition of BET bromodomain in human LNCAP cells assessed as reduction in full length AR mRNA level at 1 uM after 48 hrs by qPCR assay", "type": "cell-based"}, "[16]": {"assay": "Tmax in Sprague-Dawley rat at 2 mg/kg, iv administered as single dose", "type": "ADME, organism-based", "conditions": "in vivo"}, "Homo sapiens [17]": {"species": "Homo sapiens", "assay": "Inhibition of BET bromodomain in human LNCAP cells harboring pPSA-Luc/pRenialla-Luc assessed as reduction in PSA mRNA level after 24 hrs by luciferase reporter gene assay", "type": "cell-based"}, "[18]": {"assay": "Half life in Sprague-Dawley rat at 2 mg/kg, iv administered as single dose", "type": "ADME, organism-based", "conditions": "in vivo"}, "Homo sapiens [19]": {"species": "Homo sapiens", "assay": "Inhibition of BET bromodomain in human LNCAP cells assessed as reduction in PSA mRNA level at 1 uM after 48 hrs by qPCR assay", "type": "cell-based"}, "VCaP [20]": {"test_system": "VCaP", "assay": "Inhibition of BET bromodomain in human VCaP cells assessed as reduction in full length AR mRNA level at 1 uM after 48 hrs by qPCR assay", "type": "cell-based"}}, "note": "Calls of active or inactive are those of the source. No cut-off for these calls is given here.", "data": [{"smiles": "Cc1noc(C)c1-c1ccc2c(c1)O[C@H](CC1CC1)C(=O)N2", "values": [{"measurement": "Cmax", "setting": "[1]", "value": 1350, "unit": "ng/mL"}, {"measurement": "fold change (FC)", "setting": "Homo sapiens [2]", "value": 0.09}, {"measurement": "Tmax", "setting": "[3]", "value": 30, "unit": "min"}, {"measurement": "Activity", "setting": "Mus musculus", "value": "Non-Toxic"}, {"measurement": "AUC(0-inf)", "setting": "[4]", "value": 1460, "unit": "ng·h/mL"}, {"measurement": "fold change (FC)", "setting": "Homo sapiens [5]", "value": 0.45}, {"measurement": "inhibition", "setting": "LNCaP C4-2B", "value": "Dose-dependent effect"}, {"measurement": "Vd", "setting": "[6]", "value": 1.6, "unit": "L/kg"}, {"measurement": "Ratio IC50", "setting": "Homo sapiens [7]", "value": 25}, {"measurement": "fold change (FC)", "setting": "Homo sapiens [8]", "value": 0.43}, {"measurement": "AUC(0-inf)", "setting": "[9]", "value": 997, "unit": "ng·h/mL"}, {"measurement": "bioavailability", "setting": "[10]", "value": 29.3, "unit": "%"}, {"measurement": "inhibition", "setting": "Homo sapiens [11]", "value": "Active"}, {"measurement": "inhibition", "setting": "Homo sapiens [12]", "value": "Active"}, {"measurement": "fold change (FC)", "setting": "Homo sapiens [13]", "value": 0.06}, {"measurement": "inhibition", "setting": "VCaP [14]", "value": "Active"}, {"measurement": "Activity", "setting": "CWR22R", "value": 57, "unit": "%"}, {"measurement": "inhibition", "setting": "Homo sapiens [15]", "value": "Active"}, {"measurement": "Tmax", "setting": "[16]", "value": 4.8, "unit": "min"}, {"measurement": "inhibition", "setting": "Homo sapiens [17]", "value": "Dose-dependent effect"}, {"measurement": "half-life", "setting": "[18]", "value": 48, "unit": "min"}, {"measurement": "inhibition", "setting": "Homo sapiens [19]", "value": "Active"}, {"measurement": "inhibition", "setting": "VCaP [20]", "value": "Active"}]}]}
